Data published in US20260327260A1, “PHOSPHONOALANINE OLIGOPEPTIDES AND METHODS OF MAKING AND USE THEREOF” (priority 2023, published 2026).

Columns and labels:
threonine synthase = conditions: role: inhibitor; cited from earlier work
PnaA [1] = assay: PnaA kinetics: conversion of L-Glu and OAA to 2-KG and L-Asp, coupled to SerA/NADH oxidation; assay type: biochemical, Streptomyces sp. NRRL S-515; conditions: role: substrate (L-Glu, 0.5-15 mM); second substrate OAA 5 mM; pH 7.5, 30° C
Protocol: In addition to the transamination of Pn substrates, PnaA was also capable of catalyzing the reversible conversion of Glu and OAA into 2KG and Asp.
(§1) Kinetic analyses. All reactions (400 μL) were performed in 50 mM HEPES, 150 mM NaCl, pH 7.5, 30° C. using an Agilent Cary 300 spectrophotometer. The instrument was first blanked using the reaction containing the enzymes and the fixed substrate (without NADH). Initial rates were calculated from continual changes in absorbance (340 nm) before and after substrate addition. Data were analyzed using SigmaPlot 15.
Conversion of L-Glu and OAA to 2-KG and L-Asp by His6-SUMO-PnaA. Each reaction contained 1 μM PnaA, 5 μM SerA, 200 uM NADH, 5 mM OAA, the 340 nm absorbance change was recorded for 1 min to measure the background assumption of OAA by SerA, and were initiated by the addition of 0.5, 1, 1.5, 2, 3, 4, 6, 10, or 15 mM L-Glu. PnaA was pre-incubated with PLP (1:5) on ice for 10 min prior to use.

PnaC = PnaC dipeptide ligation reactions (LC-HRMS); assay type: biochemical, Streptomyces sp. NRRL S-515; conditions: role: substrate
Protocol: (§2) These hypotheses were tested by overproducing and purifying recombinant PnaB and PnaC from E. coli for use in a series of biochemical assays. PnAla, Ala, and ATP were incubated with PnaB or PnaC and the reactions were monitored by ^31P NMR and LC-HRMS. […] To determine if either enzyme could convert Ala-Val into phosphonoalamide A, protein was removed from the PnaC reaction by ultrafiltration and Ala, ATP, and fresh PnaC or PnaB was added to the filtrate. LC-HRMS identified PnAla-Ala-Val as a product following the addition of PnaB, but not PnaC (FIG. 25A-FIG. 25C).
The ATP-Grasp ligases PnaC and PnaB underlie diversification of L-PnAla-containing oligopeptides. To understand the biochemical nature of this potential phosphonopeptide diversity, the substrate specificity of the dipeptide ligase PnaC was first delineated. Microscale biochemical reactions containing purified PnaC were performed with every combination of the 20 canonical amino acids and L-allo-threonine (231 total pairs of substrates). Reactions were analyzed by LC-HRMS to reveal putative dipeptides from 146 out of the 231 combinations. To distinguish residues in reactions containing isomeric pairs (e.g., Ile and Leu, Thr and allo-Thr) new reactions were prepared using ^15N-Ile and 4-^13C-2,3-D2-Thr as substrates. LC-HRMS/MS fragmentation analysis was then performed to verify all products and determine structures.
Biochemical assays of His6-PnaC. Typical reaction mixtures ([…]) contained 10 μM His6-PnaC, […], 3 mM of each L-amino acid, and 5 mM ATP in 50 mM Tris-HCl, 100 mM NaCl, 2 mM MgCl2 pH 9. Reactions were incubated at 30° C. for 16 hours, heat inactivated at 65° C. for 10 minutes, and then analyzed by LC-MS as described above.
Analysis of PnaC and PnaB substrate specificity reactions. An extracted ion chromatogram (EIC) was obtained for each potential product m z. The shape and retention time of each EIC were used to evaluate the quality and plausibility of true signals, and samples with low-confidence EICs were re-analyzed individually, to address the challenges of ion suppression (FIG. 31A-FIG. 31C) and background noise (FIG. 32A-FIG. 32D).

PnaA with PnaD = assay: PnaD-PnaA coupled forward reaction, 31P NMR (PEP to PnAla); assay type: biochemical, Streptomyces sp. NRRL S-515; conditions: role: product, PEP 1.5 mM, 2 hours
Protocol: Biochemical assays of His6-SUMO-PnaA with His6-PnaD. Typical reaction mixtures (300 μL) contained 20 μM His6-PnaD, 20 μM His6-SUMO-PnaA, 1.5 mM PEP, 3 mM L-Asp, 100 μM pyridoxal 5′-phosphate (PLP), and 2 mM MgCl2 in 50 mM HEPES, 150 mM NaCl, pH 7.5. Reactions were incubated at 30° C. for 2 hours, heat inactivated at 65° C. for 10 minutes, and then analyzed by ^31P NMR and LC-MS as described above.
Reactions in timecourse experiments ([…]) contained 10 μM His6-PnaD, 10 μM His6-SUMO-PnaA, 1.5 mM PEP, 10 mM L-Asp, 100 μM pyridoxal 5′-phosphate (PLP), and 2 mM MgCl2 in 50 mM HEPES, 150 mM NaCl, pH 7.5. Samples were where heat inactivated 1, 5, 10, 30, 60, 120, and 240 min after initiation and then analyzed by ^31P NMR as described above.
Reactions examining the effect of amino donor concentrations were the same as above, except they contained 1.5, 3, 5, or 10 mM of (L-Asp). Samples were heat inactivated after 120 min and then analyzed by ^31P NMR as described above.

[2] = system: phosphoserine phosphatases; conditions: role: inhibitor; cited from earlier work
PnaA [3] = assay: PnaA kinetics: conversion of L-PnAla and OAA to PnPy and L-Asp, coupled to PnPy reductase VlpB/NADH oxidation; assay type: biochemical, Streptomyces sp. NRRL S-515; conditions: second substrate OAA 5 mM
Protocol: (§3) Next, kinetic analyses were performed to derive insight on the substrate specificity and reaction selectivity of PnaA transamination. Apparent steady state parameters were calculated in spectrophotometric assays by coupling the formation of OAA, PnPy, and 2KG with NADH oxidation in the presence of malate dehydrogenase (MDH), PnPy reductase (VlpB), and 3-phosphoglycerate dehydrogenase (SerA), respectively (FIG. 18A-FIG. 24B). […] The micromolar Km value observed for PnaA with PnPy is similar to that of other PepM coupling enzymes such as PnPy decarboxylase [B27, B30].
as §1
Conversion of L-PnAla and OAA to PnPy and L-Asp by His6-SUMO-PnaA. Each reaction contained 1 μM PnaA, 5 μM VlpB, 200 uM NADH, 5 mM OAA, the 340 nm absorbance change was recorded for 1 min to measure the background assumption of OAA by VlpB. Then the reactions were initiated by the addition of 0.1, 0.2, 0.35, 0.5, 0.65, 0.8, or 1 mM PnAla. PnaA was pre-incubated with PLP (1:5) on ice for 10 min prior to use.

[4] = system: metabotropic glutamate receptors; conditions: cerebral tissues; cited from earlier work
PnaB = PnaB ligation reactions (31P NMR, LC-HRMS); assay type: biochemical, Streptomyces sp. NRRL S-515; conditions: role: substrate
Protocol: as §2
Biochemical assays of His6-PnaB. Typical reaction mixtures ([…]) contained 10 μM His6-PnaB, 3 mM ATP, 1 mM L-PnAla, 3 mM chemically synthesized L-Ala-L-Val, L-Val-L-Val, L-Ala-L-Ile, or L-Thr-L-Val in 50 mM Tris-HCl, 100 mM NaCl, 2 mM MgCl2 pH 9. Reactions were incubated at 30° C. for 2 hours, heat inactivated at 65° C. for 10 minutes, and then analyzed by NMR and LC-MS as described above.

PnaA [5] = assay: PnaA reverse transamination reaction, 31P NMR/LC-MS (PnAla to PnPy); assay type: biochemical, Streptomyces sp. NRRL S-515; conditions: role: product, 2 hours
Protocol: Biochemical assays of His6-SUMO-PnaA. Typical reaction mixtures (300 μL) contained 20 μM His6-SUMO-PnaA, 1.5 mM L-PnAla, 3 mM oxaloacetate, and 100 μM pyridoxal 5′-phosphate (PLP) in 50 mM HEPES, 150 mM NaCl, pH 7.5. Reactions were incubated at 30° C. for 2 hours, heat inactivated at 65° C. for 10 minutes, and then analyzed by NMR and LC-MS as described above.
Reactions in time course experiments (150 μL) contained 10 μM His6-SUMO-PnaA, 1.5 mM L-PnAla, 10 mM oxaloacetate (OAA), and 100 μM pyridoxal 5′-phosphate (PLP) in 50 mM HEPES, 150 mM NaCl, pH7.5. Samples were where heat inactivated 1, 5, 10, 30, 60, 120, and 240 min after initiation and then analyzed by ^31P NMR as described above.
Reactions examining the effect of keto-acid acceptor concentrations were the same as above, except they contained 1.5, 3, 5, or 10 mM of (OAA). Samples were heat inactivated after 120 min and then analyzed by ^31P NMR as described above.

PnaA [6] = assay: PnaA kinetics: conversion of PnPy and L-Asp to L-PnAla and OAA, coupled to MDH/NADH oxidation (340 nm); assay type: biochemical, Streptomyces sp. NRRL S-515; conditions: role: substrate (PnPy, 0.0025-0.015 mM); second substrate L-Asp 5 mM; pH 7.5, 30° C; apparent steady state
Protocol: as §3, §1
Conversion of PnPy and L-Asp to L-PnAla and OAA by His6-SUMO-PnaA. Each reaction contained 0.5 μM PnaA, 5 μM MDH, 200 uM NADH, 5 mM L-Asp, and were initiated by the addition of 0.0025, 0.00375, 0.005, 0.0065, 0.008, 0.01, or 0.015 mM PnPy. PnaA was pre-incubated with PLP (1:5) on ice for 10 min prior to use.

MurA = conditions: role: inhibitor; mimics phosphoenolpyruvate; cited from earlier work
[7] = system: 1-deoxy-D-xylulose 5-phosphate reductoisomerase; conditions: role: inhibitor; cited from earlier work
malaria = conditions: cited from earlier work
bacteria = conditions: cited from earlier work
[8] = role: substrate (PnAla), compared with PnPy
[9] = role: substrate (PnAla, 0.1-1 mM), pH 7.5, 30° C, reverse reaction

N[C@@H](/C=C\CP(=O)(O)O)C(=O)O [(Z)-L-2-amino-5-phosphono-3-pentenoic acid]
threonine synthase inhibition (threonine synthase): threonine synthase inhibitor

N[C@@H](CCC(=O)O)C(=O)O [Glu]
Km (PnaA [1]): 7500 µM
kcat (PnaA [1]): 0.31 s⁻¹

NC(CP(=O)(O)O)C(=O)O (stereo not drawn) [PnAla, 2-amino-3-phosphonopropionic acid]
modification of PnAla with Ala (PnaC; with Ala and ATP, up to 16 hrs): PnAla remained unmodified
conversion of PnAla with Ala-Val (PnaC; with chemically synthesized Ala-Val and ATP): PnAla remained unmodified by PnaC
PnAla accumulation at apparent equilibrium (PnaA with PnaD; Asp varied 1.5, 3, 5 or 10 mM): ≥ 70%
yield of PnAla from the PepM-coupled forward reaction (PnaA with PnaD; L-Asp 3 mM, PLP 100 μM, 30° C): 50%
phosphoserine phosphatase inhibition [2]: inhibitor of phosphoserine phosphatases
higher Michaelis constant (fold, reverse reaction compared with PnPy reaction) (PnaA [3]; [8]): 100 fold
lower catalytic efficiency (fold, reverse reaction compared with PnPy reaction) (PnaA [3]; [8]): 100 fold
Km (PnaA [3]; [9]): 327 µM
kcat (PnaA [3]; [9]): 2.4 s⁻¹
metabotropic glutamate receptor antagonism [4]: selective antagonist of metabotropic glutamate receptors
conversion of PnAla into phosphonoalamide A (PnaB; L-PnAla 1 mM, with Ala-Val 3 mM and ATP 3 mM, pH 9, 30° C): complete conversion of PnAla into phosphonoalamide A by PnaB
modification of PnAla with Ala (PnaB; with Ala and ATP, up to 16 hrs): PnAla remained unmodified

O=C(O)C(=O)CP(=O)(O)O [PnPy, 3-phosphonopyruvate]
yield of PnPy from the reverse reaction (PnaA [5]; L-PnAla 1.5 mM, OAA 3 mM, PLP 100 μM, 30° C): 48%
PnPy accumulation at apparent equilibrium (PnaA [5]; PnAla 1.5 mM, OAA varied 1.5, 3, 5 or 10 mM): ≥ 70%
Km (PnaA [6]): 4.8 µM
kcat (PnaA [6]): 2.3 s⁻¹

C[C@@H]1O[C@@H]1P(=O)(O)O [fosfomycin]
MurA inhibition (MurA): covalently inhibit MurA

O=CN(O)CCCP(=O)(O)O [fosmidomycin]
inhibition of 1-deoxy-D-xylulose 5-phosphate reductoisomerase [7]: inhibiting 1-deoxy-D-xylulose 5-phosphate reductoisomerase
results against malaria in human trials (malaria): promising results against malaria in human trials

CC(C)[C@H](NC(=O)[C@H](C)NC(=O)[C@@H](N)CP(=O)(O)O)C(=O)O [phosphonoalamide A]
spectrum of antimicrobial activity (bacteria): differing spectrums of antimicrobial activity

C[C@H](N)C(=O)N[C@@H](C)C(=O)N[C@@H](CP(=O)(O)O)C(=O)O [phosphonoalamide F, reference compound]
spectrum of antimicrobial activity (bacteria): differing spectrums of antimicrobial activity
